# Columns and labels:
# [1] = Water solubility of EGCG; assay type: physicochemical
# [2] = oral dose of 800 mg/70 kg/day; cited from earlier work
# [3] = Total EGCG concentration in blood and brain tissues after 4 weeks of treatment; assay type: in vivo; details: after 4 weeks of treatment at a maximum dose (300 mg/kg)
# [4] = tested on: SweAPP N2a cells; details: free EGCG (Rezai-Zadeh et al., 2005); cited from earlier work
smiles,measurement,setting,value
"O=C(O[C@@H]1Cc2c(O)cc(O)cc2O[C@@H]1c1cc(O)c(O)c(O)c1)c1cc(O)c(O)c(O)c1 [EGCG, (−)-epigallocatechin-3-gallate]",water solubility,[1],poorly water soluble
same,EGCG in human plasma,[2],approximately 400 ng/ml
same,total EGCG concentration in blood and brain tissues,[3],1000 to 1300 ng/mL
same,EGCG concentration necessary for promoting APP α-secretase cleavage,[4],1000 to 2000 ng/mL

# — patent publication US8906414B1, “Methods and compositions for improving bioavailability of epigallocatechin gallate (EGCG)” (University of South Florida, priority 2009, dated 2014)
